Source: patent US20240285808A1, “MOLECULAR PROBES FOR IN VIVO DETECTION OF ALDEHYDES” (The General Hospital Corporation, priority 2021, published 2024)
“And” between values parts separate entries of the source, which are not always exact repeats. Identical values can stand only once. “Also recorded” adds a separate entry of the source.

Assays:
[1] = Reaction rates with 2-formylpyridine measured by HPLC-ICP-MS (Method A); format: physicochemical; conditions: Method a: 2-formylpyridine 1000 μM, probe 25 μM, pH 7.40 PBS
Description: Quantitative Measurement of Reaction Rates with Aldehydes: Method A: Reaction Rates of Compounds with 2-Formylpyridine Measured by HPLC-ICP-MS
Reactivity of aldehyde-binding probes were assessed in pH 7.40 phosphate-buffered saline under pseudo-first order conditions with 2-formylpyridine concentration of 1000 μM and probes at 25 μM. Concentrations of unreacted starting material and condensation products were determined at 12 min time intervals based on their relative integrations. The values were fit to a standard first order rate constant linear equation and the rate constant was extracted from the slope.

[2] = test system: fibrotic lung tissue of bleomycin-injured mice; assay: Biodistribution study for selectivity of allysine-reactive Gd probes (Gd:Eu ratio by ICP-MS); format: in vivo, mouse; conditions: 30 minutes after injection, 100 nmol/g, Eu-DOTA co-injected, n = 5
Description: C57Bl/6 adult male mice at 8 weeks of age (Jackson Laboratories, Barr Harbor, ME) received a single intratracheal dose of bleomycin, 1 units/kg body weight (50 μL total volume) (Fresenius Kabi, Lake Zurich, Il) as previously described in Desogere, P., et al. Optimization of a Collagen-Targeted PET Probe for Molecular Imaging of Pulmonary Fibrosis. J Nuc Med 58, 1991-1996 (2017).
Imaging and Biodistribution Study for Selectivity of Allysine-Reactive Probes In Vivo:
Bleomycin-injured mice at 14 days after injury were sedated and then injected with Compound 19, Compound 20, Gd-CHyd (Akam, E. A., et al. Improving the reactivity of hydrazine-bearing MRI probes for in vivo imaging of lung fibrogenesis. Chemical Science 11, 224-231 (2020)) formulated to contain an equal concentration of Eu-DOTA as a non-binding control probe. […] Each sample was analyzed by ICP-MS for gadolinium and europium content, and the lungs were also assessed for hydroxyproline content. […] All animals were dosed via tail vein injection at 100 nmol/g body weight from 30 mM solutions of gadolinium probes with 30 mM Eu-DOTA as determined by ICP-MS. […] Animals were euthanized 90 min post injection and their organs and tissues were harvested and counted using a gamma counter. […] The animals were euthanized 90 min post injection and their organs and tissues were counted using a gamma counter. […]

[3] = Relaxivity measurements in PBS; format: physicochemical; conditions: 1.4 T, 37° C.
Description: (§1) BSA-ALD (10 mg/mL) or BSA (10 mg/mL) were treated for 24 hours at 37° C. with the corresponding Gd or Mn complex at a range of concentrations (0.01-0.2 mM), with a total volume of 300 μL maintained for all samples. After 24 hours, an aliquot of the solution (50 μL) was used for longitudinal (T1) relaxation measurements, recorded using a Bruker mq60 Minispec at 1.41 T and 37° C. Longitudinal (T1) relaxation times were measured via an inversion recovery experiment using 10 inversions of duration ranging between 0.05×T1 and 10×T1. Solutions (concentration range: 0.1 mM-1.0 mM) in PBS were run in parallel. To measure the relaxivity of BSA-bound species, sodium cyanoborohydride (10 mg) was added to the solution to irreversibly bind the probe to the protein. After a further 2h incubation at 37° C., protein-bound and protein-free solutions were separated by ultrafiltration. Then 200 μL PBS was added to the residue to dissolve the protein. Longitudinal (T1) relaxation times for the bounded species were measured using a Bruker mq60 Minispec at 1.41 T and 37° C. After the measurement, concentration of corresponding metal ion (Gd/Mn) in the residue and filter were both determined using an Agilent 8800 ICP-MS system. Relaxivity (r1) was determined from the slope of a plot of 1/T1 vs metal concentration for 5 concentrations.

[4] = Biodistribution of manganese in healthy mice 60 minutes post-injection; format: in vivo, mouse; conditions: 0.1 mmol/kg i.v.
From the text: (§2) To meet these requirements, the probes Mn-12, Mn-13 and Mn-14 were designed based on the stable Mn-1,4-DO2A chelate. […] This combination of stability, turn-on relaxivity, and low uptake in healthy liver indicate that Mn-12 is quite promising as a novel probe for liver fibrogenesis detection.

[5] = Transmetalation experiment with Zn^2+ monitored by relaxivity; format: physicochemical; conditions: 1 mM complex, 25 mM Zn^2+, 50 mM pH 6.0 MES buffer, 37° C., 1.4 T
[6] = H2^17O transverse relaxivity vs temperature (inner-sphere water number q); format: physicochemical; conditions: temperature dependence of H2^17O transverse relaxivity
From the text: FIG. 24. […] The peak relaxivity is indicative of the number of inner-sphere water molecules (q).
as §2

[7] = biological target: bovine serum albumin (BSA) (Bos taurus, UniProt P02769); assay: Relaxivity measurements with BSA; format: binding; conditions: 1.4 T, 37° C., BSA 10 mg/mL
bovine serum albumin (BSA), sequence (P02769 25-607): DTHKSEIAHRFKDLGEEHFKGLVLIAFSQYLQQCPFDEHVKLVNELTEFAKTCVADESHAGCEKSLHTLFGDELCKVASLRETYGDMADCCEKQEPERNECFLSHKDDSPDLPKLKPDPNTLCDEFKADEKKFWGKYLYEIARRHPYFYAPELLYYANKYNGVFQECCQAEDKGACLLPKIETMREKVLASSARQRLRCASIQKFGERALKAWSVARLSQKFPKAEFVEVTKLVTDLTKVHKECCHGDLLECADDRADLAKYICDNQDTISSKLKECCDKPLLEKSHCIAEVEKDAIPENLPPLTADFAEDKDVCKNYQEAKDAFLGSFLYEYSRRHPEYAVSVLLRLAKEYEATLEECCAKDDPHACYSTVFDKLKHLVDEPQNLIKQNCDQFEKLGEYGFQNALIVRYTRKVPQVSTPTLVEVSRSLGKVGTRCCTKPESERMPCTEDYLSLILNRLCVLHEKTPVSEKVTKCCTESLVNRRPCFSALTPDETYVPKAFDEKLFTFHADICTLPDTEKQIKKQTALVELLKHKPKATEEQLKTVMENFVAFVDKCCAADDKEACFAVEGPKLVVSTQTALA
Description: as §1

[8] = test system: liver of CCl4 injured mice; format: in vivo, mouse; conditions: CCl4 injured mice
Description: CCl4 Liver Fibrosis Model:
Male C57BL/6 mice (Charles River Laboratories, Wilmington, MA) were treated with carbon tetrachloride for 12 weeks (0.1 ml of 20% CCl4 in olive oil the first week, 30% the second week, and 40% from weeks 3-12) by oral gavage, 2-3 times per week. Control mice were fed vehicle (olive oil) only.
A total of 53 C57BL/6 mice were included to study CCl4 induced hepatic fibrosis: • A. CCl4 for 12 weeks (n=20). Each mouse was imaged with probe 1 and then imaged again 24 hours later with probe 2. Probe 1 and Probe 2 were randomly chosen from GdDOTA, GdCHyd, Mn-12, Gd-9 and Gd-10. • B. Vehicle treated control (n=20). Each mouse was imaged with probe 1 and then imaged again 24 hours later with probe 2. Probe 1 and Probe 2 were randomly chosen from GdDOTA, Mn-12, GdCHyd, Gd-9, Gd-10. • C. CCl4 for 12 weeks (n=3, another 3 pair-wise comparison have been done in group A). Each mouse was imaged with probe 1 and then imaged again 24 hours later with probe 2. […] Each mouse was imaged with probe 1 and then imaged again 24 hours later with probe 2. Probe 1 and Probe 2 were randomly choosing from Gd-9 and Gd-10. • E. CCl4 for 12 weeks (n=3). Each mouse was imaged with Gd-9. After 24 hours, the same mouse was first injected with 1000 μmol/kg of Yb-9 and then injected with 100 μmol/kg of Gd-9 15 min after the Yb-9 injection.
Animals were anesthetized with isoflurane (1-2%) and placed in a specially designed cradle with body temperature maintained at 37° C. The inhaled isoflurane level was adjusted to maintain a respiration rate of 60±5 breaths per minute. The tail vein was cannulated for intravenous (i.v.) delivery of the contrast agent while the animal was positioned in the scanner. Imaging was performed at 4.7 T using a small bore animal scanner with a custom-built volume coil. Mice were imaged with a dose of 100 μmol/kg from 30 mM stock solution of Gd or Mn complex.
For mice liver imaging, a series of baseline images (3D T1 weighted fast low angle shot magnetic resonance imaging (FLASH)) were first acquired (repetition time/echo time=15/2 ms; flip angle, 30°; field of view, 48×30 mm^2; matrix size, […]; slice thickness, 0.25 mm; acquisition time, 3 minutes 20 seconds), then a bolus of Gd or Mn complex was administered i.v. and imaging performed for a period of 45 min p.i. with the repetition acquisition of 3D T1 weighted FLASH sequences. Following the imaging session, animals were sacrificed (75 min p.i.) and liver tissue was subjected to histopathologic analysis.
For liver imaging analysis, a region of interest (ROI) was manually traced encompassing the liver parenchyma while avoiding major blood vessels. A second ROI was placed on the dorsal muscle visible in the same image slice to quantify the signal intensity in the muscle for comparison. Seven ROIs were placed in the field of view without any tissue (air) to measure the variation in background signal. More than 20 axial slices per mouse across the entire liver were analyzed in this fashion. […] Contrast to noise ratio (CNR) was calculated by measuring the difference in signal intensity (SI) between liver and muscle and normalizing to the standard deviation of the signal in the air, eq 21. ΔCNR was calculated by subtracting CNR measured prior to probe injection (CNRPre) from CNR measured after injection (CNRPost), eq 22. […]

[9] = Reaction rates with butyraldehyde measured by HPLC-ICP-MS (Method B); format: physicochemical; conditions: Method b: butyraldehyde 100 μM, probe 25 μM, pH 7.40
Description: Method B: Reaction Rates of Compounds with Butyraldehyde Measured by HPLC-ICP-MS
The reactions were conducted in pH 7.40 phosphate-buffered with butyraldehyde concentration of 100 μM and hydrazine probes at 25 μM. Concentrations of unreacted starting material and condensation products were determined at 10 min time intervals over 2 hours based on their relative integrations. The values were fit to a standard first order rate constant linear equation and the rate constant was extracted from the slope.
Reaction with Butyraldehyde Monitored by HPLC-ICP-MS
Reactions were conducted in pH 7.4 phosphate-buffered saline with butyraldehyde concentration of 100 μM and hydrazine probes at 25 μM. Concentrations of unreacted starting material and condensation products were determined based on their relative integrations at 12 min time intervals over 2 hours.

[10] = biological target: T1, BSA-ALD (oxidized bovine serum albumin containing allysine aldehyde groups) (Bos taurus, UniProt P02769); assay: Relaxivity measurements with BSA-Ald; format: binding
T1 construct: made in house; host or cells: no expression host: BSA oxidised chemically with sodium ascorbate, ferric chloride and H2O2, then desalted on PD-10
T1 sequence (P02769 25-607): as above
Description: Preparation of Allysine Containing Bovine Serum Albumin, BSA-ALD:
To a solution of bovine serum albumin (BSA) (100 mg) dissolved in phosphate buffered saline (4 mL, pH 7.4, 0.25 mM), sodium ascorbate (20 mg), ferric chloride (120 μL, 10 mM) and 20 μL H2O2 (30% w) were added. The reaction was stirred at 37° C. for 24 hours, and sodium ascorbate (20 mg) was added repeatedly every 8 hours. After the reaction, protein was purified using PD-10 Sephadex G25 desalting columns (GE Healthcare), eluted with PBS. Protein concentration was assessed using the ‘BCA Protein Assay Kit’ (Thermo Scientific). Protein carbonyl concentration was determined by ‘Protein Carbonyl Content Assay Kit’ (Sigmal-Aldrich).
Alternatively, preparation of BSA^Ald and binding of Gd^3+ probe to protein was carried out according to modified procedures. To a solution of bovine serum albumin (BSA) (100 mg) dissolved in phosphate buffered saline (4 mL, pH 7.4, 0.25 mM) was added sodium ascorbate (20 mg), ferric chloride (120 μL, 10 mM) and 20 μL H2O2 (30% w). The reaction was stirred at 37° C. for 24 h, and sodium ascorbate (20 mg) was added repeatedly every 8 h. After 24 h, the protein was purified using PD-10 Sephadex G25 desalting columns (GE Healthcare), eluted with PBS. Protein concentration was assessed using the ‘Micro BCA Protein Assay Kit’ (Thermo Scientific, 23235). Protein carbonyl concentration was determined by ‘Protein Carbonyl Content Assay Kit’ (Sigma-Aldrich, MAK094-1KT). […] The protein solutions were kept at a concentration of 20 mg/mL for further use.
as §1

Compound | k (second order rate constant) [1] [M⁻¹ s⁻¹] | Gd:Eu ratio, Left lung [2] | Gd:Eu ratio, Right lung [2] | r1, PBS [3] [mM⁻¹ s⁻¹] | Mn liver levels in healthy mice [4] | kinetic inertness to Mn^2+ release [5] | inner-sphere number of water molecule (q) [6] | r1, +BSA [7] [mM⁻¹ s⁻¹] | liver enhancement ([8]; 45 min p.i.) | ΔCNR (liver to muscle) ([8]; 45 min post injection, 100 μmol/kg i.v., group mean) | k (second order rate constant) [9] [M⁻¹ s⁻¹] | turn-on in relaxivity upon binding to allysine (BSA-Ald bound vs unbound) [10] | r1, +BSA-Ald ([10]; 1.4 T, 37° C., BSA-Ald 10 mg/mL) [mM⁻¹ s⁻¹] | r1, Bound to BSA-Ald ([10]; 1.4 T, 37° C., protein-bound species after NaBH3CN and ultrafiltration) [mM⁻¹ s⁻¹]
NOCC(=O)NCCN(CCNC(=O)CCC1C(=O)[O][Gd]23[O]C(=O)CN4CCN(CCN1CCN(CC4)CC(=O)[O]2)CC(=O)[O]3)CCNC(=O)CON (centres unmarked) [Compound 19] | 0.55 | 1.4 ± 0.1 | 1.3 ± 0.2 |  |  |  |  |  |  |  |  |  |  | 
NN1CCN(C(=O)CCCN2CCN(CCCC(=O)N3CCN(N)CC3)CCN(CC(=O)[O-])CCN(CC(=O)[O-])CC2)CC1.[Mn+2] [Mn-12] |  |  |  | 1.6 | little accumulation in the healthy liver; also recorded: baseline Mn levels in liver | more inert to Mn^2+ release than Mn-1,4-DO2A; also recorded: increased kinetic stability of Mn-12 compared to unmodified Mn-1,4-DO2A | 0.44 | 2.2 | strong signal enhancement | 1.5 ± 0.8 | 4.5 | 4 fold and ~5 fold | 4.5 | 7.7
